Data taken from patent US9555038B2, “Heterocycle-substituted tetracyclic compounds and methods of use thereof for the treatment of viral diseases” (Merck Sharp & Dohme Corp., priority 2013, dated 2017).
Like-named read-outs stand apart in the source and are kept apart here.

Legend:
[1] = system: HCV replicon 1B; test: Cell-based HCV Replicon Assay B, replicon 1B
In short: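 Replicon cells seeded in 5% FBS; compounds added 24 h later, then 3 days' incubation. Replicon RNA quantified by real-time RT-PCR with genotype-specific primers/probes (NS5B amplicon for 1b). EC50 = concentration raising CT by 1 over projected baseline.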

[2] = system: HCV replicon 1A; test: Cell-based HCV Replicon Assay A, replicon 1A
In short: (§1)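 Replicon cells were seeded at 2000 cells/well with test compound in 10 serial dilutions, starting at 333.3 nM to 1.667 nM, in 0.5% DMSO and 5% FBS. On day 3, cells were washed and lysed, and replicon RNA was quantified by multiplex TaqMan RT-PCR normalised to cyclophilin.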

[3] = system: HCV replicon 1AQ30D; test: Cell-based HCV Replicon Assay B, replicon 1AQ30D
Procedure: In an alternate assay (“Replicon Assay B”), 1000 cells were seeded per well in a 384-well collagen coated black plate from Greiner bio-one (Cat #781946) in 5% FBS. Inhibitors of this invention were added at 24 h post-seeding, and the plates were incubated for 3 days. Cells were subsequently lysed with Qiagen lysis buffer (Cat #1062731) to extract the RNA. HCV replicon RNA level was measured by real-time PCR using the RNA-to-CT kit from Applied Biosystem (Cat #4392656) and genotype-specific primers and probes. The amplicon was located within NS5B. The sequence of the PCR primers are as follows: 5B.2F, ATGGACAGGCGCCCTGA (SEQ. ID NO. 1); 5B.2R, […] (SEQ. ID NO. 2); the probe sequence was FAM-labeled CACGCCATGCGCTGCGG (SEQ. ID NO. 3). To detect genotype 1A the primer 1A F, TGCGGAACCGGTGAGTACA and 1A R, […] were used; the probe sequence was FAM-[…].
The real-time RT-PCR reactions were run on ABI PRISM 7900HT or Viia7 Sequence Detection System using the following program: 48° C. for 30 minutes, 95° C. for 10 minutes, 40 cycles of 95° C. for 15 sec, 60° C. for 1 minutes. The 50% effective concentration (EC50) was the drug concentration necessary to achieve an increase in the cycle threshold (CT) of 1 over the projected baseline CT.
Data was obtained for various compounds of the present invention using the methods described in the Example above, and is presented in the table immediately below. Data for replicons 1A, 1AY93H and 2B were obtained using Replicon Assay A and data for replicons 1AQ30D and 1B were obtained using Replicon Assay B.

[4] = system: HCV replicon 2B; test: Cell-based HCV Replicon Assay A, replicon 2B
In short: as §1

[5] = system: HCV replicon 1AY93H; test: Cell-based HCV Replicon Assay A, replicon 1AY93H
In short: as §1

[6] = read-out: 1A Q30D IC50, replicon 1AQ30D
[7] = read-out: 1A Y93H IC50, replicon 1AY93H
[8] = Hepatitis C virus, read-out: 1A Q30D IC50 (nM), replicon 1AQ30D
[9] = Hepatitis C virus, read-out: 2B IC50 (nM), replicon 2B
[10] = Hepatitis C virus, read-out: 1A Y93H IC50 (nM), replicon 1AY93H

Row | SMILES | IC50 ([1]; Hepatitis C virus) [pM] | IC50 ([2]; Hepatitis C virus) [pM] | IC50 [3, 6] [nM] | IC50 ([4]; read-out: 2B IC50, replicon 2B) [nM] | IC50 [5, 7] [nM] | IC50 [3, 8] [nM] | IC50 [4, 9] [nM] | IC50 [5, 10] [nM] | IC50 [2] [pM] | IC50 [1] [pM] | IC50 ([3]; replicon 1AQ30D, read-out: 1A Q30D IC50) [nM] | IC50 ([4]; replicon 2B, read-out: 2B IC50) [nM] | IC50 ([5]; replicon 1AY93H, read-out: 1A Y93H IC50) [nM]
1 | CCCc1ncc(C2Oc3cc(-c4cnc([C@@H]5CCCN5C(=O)[C@@H](NC(=O)OC)C(C)C)[nH]4)cc(F)c3-c3cc4cc(-c5cnc([C@@H]6C[C@H]7C[C@H]7N6C(=O)C(NC(=O)OC)C6CCOC(C)(C)C6)[nH]5)ccc4n32)s1 (single isomer, unassigned) [Compound 104] | 3 | 2.8 | 0.028 | 0.004 | 0.0041 | – | – | – | – | – | – | – | –
2 | CCC(CC)c1ncc(C2Oc3cc(-c4cnc([C@@H]5CCCN5C(=O)[C@@H](NC(=O)OC)C(C)C)[nH]4)cc(F)c3-c3cc4cc(-c5cnc([C@@H]6CCCN6C(=O)[C@@H](NC(=O)OC)C(C)C)[nH]5)ccc4n32)s1 (mixture of isomers) [Compound 524] | 2 | 3 | – | – | – | 0.183 | 0.105 | 0.008 | – | – | – | – | –
3 | COC(=O)NC(C(=O)N1CCC[C@H]1c1ncc(-c2ccc3c(c2)cc2n3C(c3cnc(C4(C)CC4)s3)Oc3cc(-c4cnc([C@@H]5CCCN5C(=O)[C@@H](NC(=O)OC)C(C)C)[nH]4)cc(F)c3-2)[nH]1)C1CCOC(C)(C)C1 (single isomer, unassigned) [Compound 457] | 3.6 | 3.3 | 0.07 | 0.005 | 0.007 | – | – | – | – | – | – | – | –
4 | COC(=O)NC(C(=O)N1[C@@H]2C[C@@H]2C[C@H]1c1ncc(-c2ccc3c(c2)cc2n3C(c3cnc(C4(C)CCCC4)s3)Oc3cc(-c4cnc([C@@H]5CCCN5C(=O)[C@@H](NC(=O)OC)C(C)C)[nH]4)cc(F)c3-2)[nH]1)C1CCOC(C)(C)C1 (single isomer, unassigned) [Compound 475] | 3.9 | – | – | 0.008 | 0.001 | 0.016 | – | – | 2.4 | – | – | – | –
5 | COC(=O)N[C@H](C(=O)N1CCC[C@H]1c1nc(-c2cc(F)c3c(c2)OC(c2cnc(-c4cnccn4)s2)n2c-3cc3cc(-c4cnc([C@@H]5CCCN5C(=O)[C@@H](NC(=O)OC)C(C)C)[nH]4)ccc32)c[nH]1)C(C)C (some centres unmarked) [Compound 424] | 694 | 1.9 | – | – | – | 0.058 | 0.003 | 0.0554 | – | – | – | – | –
6 | COC(=O)NC(C(=O)N1[C@@H]2C[C@@H]2C[C@H]1c1ncc(-c2ccc3c(c2)cc2n3C(c3ncc(C4CC4)s3)Oc3cc(-c4cnc([C@@H]5CCCN5C(=O)[C@@H](NC(=O)OC)C(C)C)[nH]4)cc(F)c3-2)[nH]1)C1C[C@@H](C)O[C@@H](C)C1 (single isomer, unassigned) [Compound 65] | 3 | – | – | 0.044 | 0.0081 | 0.095 | – | – | 2.1 | – | – | – | –
7 | COC(=O)NC(C(=O)N1CCC[C@H]1c1ncc(-c2ccc3c(c2)cc2n3C(c3cnc(C4CCC4)s3)Oc3cc(-c4cnc([C@@H]5CCCN5C(=O)[C@@H](NC(=O)OC)C(C)C)[nH]4)cc(F)c3-2)[nH]1)C1C[C@@H](C)O[C@@H](C)C1 (single isomer, unassigned) [Compound 67] | – | – | 1.39 | 0.056 | 0.225 | – | – | – | 2 | 2 | – | – | –
8 | COC(=O)NC(C(=O)N1CCCC1c1ncc(-c2cc(F)c3c(c2)OC(c2cnc(C4CCCC4)s2)n2c-3cc3cc(-c4cnc(C5CC6CC6N5C(=O)C(NC(=O)OC)C(C)C)[nH]4)ccc32)[nH]1)C(C)C (single isomer, unassigned) [Compound 320] | – | – | – | – | – | – | – | – | 1.7 | 3 | 0.59 | 0.203 | 0.036
9 | COC(=O)NC(C(=O)N1CCC[C@H]1c1ncc(-c2ccc3c(c2)cc2n3C(c3cnc(C4CC4)s3)Oc3cc(-c4cnc([C@@H]5CCCN5C(=O)[C@@H](NC(=O)OC)C(C)C)[nH]4)cc(C)c3-2)[nH]1)C1C[C@@H](C)O[C@H](C)C1 (single isomer, unassigned) [Compound 213] | 7 | 7.8 | – | – | – | 0.126 | 0.005 | 0.0252 | – | – | – | – | –
10 | COC(=O)N[C@H](C(=O)N1CCC[C@H]1c1ncc(-c2cc(F)c3c(c2)OC(c2ncc(-c4ccc(F)cc4)s2)n2c-3cc3cc(-c4cnc([C@@H]5CCCN5C(=O)[C@@H](NC(=O)OC)C(C)C)[nH]4)ccc32)[nH]1)C(C)C (single isomer, unassigned) [Compound 33] | 1 | 1.7 | 1.67 | 0.746 | 1.18 | – | – | – | – | – | – | – | –
11 | COC(=O)NC(C(=O)N1CCC[C@H]1c1ncc(-c2ccc3c(c2)cc2n3C(c3cnc(C4CCC4)s3)Oc3cc(-c4cnc([C@@H]5CCCN5C(=O)[C@@H](NC(=O)OC)C(C)C)[nH]4)cc(F)c3-2)[nH]1)C1C[C@@H](C)O[C@@H](C)C1 (single isomer, unassigned) [Compound 66] | 2 | 2.3 | 0.018 | 0.003 | 0.0021 | – | – | – | – | – | – | – | –
12 | COC(=O)N[C@H](C(=O)N1CCC[C@H]1c1ncc(-c2cc(F)c3c(c2)OC(c2cnc(C4(C)CC4)s2)n2c-3cc3cc(-c4cnc([C@@H]5C[C@H]6C[C@H]6N5C(=O)[C@@H](NC(=O)OC)C(C)C)[nH]4)ccc32)[nH]1)C(C)C (single isomer, unassigned) [Compound 452] | 2.5 | 2.7 | 0.093 | 0.04 | 0.004 | – | – | – | – | – | – | – | –
13 | COC(=O)NC(C(=O)N1CCC[C@H]1c1ncc(-c2ccc3c(c2)cc2n3C(c3cnc(C4(C)CCCC4)s3)Oc3cc(-c4cnc([C@@H]5CCCN5C(=O)[C@@H](NC(=O)OC)C(C)C)[nH]4)cc(F)c3-2)[nH]1)C1CCOC(C)(C)C1 (single isomer, unassigned) [Compound 446] | 3.4 | 1.8 | 0.034 | 0.005 | 0.004 | – | – | – | – | – | – | – | –
14 | COC(=O)NC(C(=O)N1[C@@H]2C[C@@H]2C[C@H]1c1ncc(-c2ccc3c(c2)cc2n3C(c3cnc(C4(C)CC4)s3)Oc3cc(-c4cnc([C@@H]5CCCN5C(=O)[C@@H](NC(=O)OC)C(C)C)[nH]4)cc(F)c3-2)[nH]1)C1CCOC(C)(C)C1 (single isomer, unassigned) [Compound 465] | 3.9 | 2.7 | 0.022 | 0.005 | 0.002 | – | – | – | – | – | – | – | –
15 | COC(=O)NC(C(=O)N1[C@@H]2C[C@@H]2C[C@H]1c1ncc(-c2ccc3c(c2)cc2n3C(c3cnc(C4(C)CC4)s3)Oc3cc(-c4cnc([C@@H]5CCCN5C(=O)[C@@H](NC(=O)OC)C(C)C)[nH]4)cc(F)c3-2)[nH]1)C1CCOC(C)(C)C1 (single isomer, unassigned) [Compound 467] | – | – | 1.4 | 0.158 | 0.209 | – | – | – | 3 | 3.4 | – | – | –
16 | CCC(CC)c1ncc(C2Oc3cc(-c4cnc([C@@H]5CCCN5C(=O)[C@@H](NC(=O)OC)C(C)C)[nH]4)cc(F)c3-c3cc4cc(-c5cnc([C@@H]6CCCN6C(=O)C(NC(=O)OC)C6CCOC(C)(C)C6)[nH]5)ccc4n32)s1 (single isomer, unassigned) [Compound 444] | 3.8 | 2.2 | 0.038 | 0.007 | 0.005 | – | – | – | – | – | – | – | –
17 | COC(=O)NC(C(=O)N1[C@@H]2C[C@@H]2C[C@H]1c1ncc(-c2ccc3c(c2)cc2n3C(c3cnc(C4CCC4)s3)Oc3cc(-c4cnc([C@@H]5CCCN5C(=O)[C@@H](NC(=O)OC)C(C)C)[nH]4)cc(C)c3-2)[nH]1)C1C[C@@H](C)O[C@@H](C)C1 (single isomer, unassigned) [Compound 222] | 6 | 2.7 | – | – | – | 0.044 | 0.007 | 0.0059 | – | – | – | – | –
18 | COC(=O)N[C@H](C(=O)N1CCC[C@H]1c1ncc(-c2cc(C)c3c(c2)OC(c2ncc(C4CC4)s2)n2c-3cc3cc(-c4cnc([C@@H]5CCCN5C(=O)[C@@H](NC(=O)OC)C5C[C@@H](C)O[C@@H](C)C5)[nH]4)ccc32)[nH]1)C(C)C (single isomer, unassigned) [Compound 48] | – | – | 0.31 | 0.016 | 0.0538 | – | – | – | 1.5 | 2 | – | – | –
19 | COC(=O)N[C@H](C(=O)N1CCC[C@H]1c1ncc(-c2cc(F)c3c(c2)OC(c2cnc(-c4ccc(OC(F)(F)F)cc4)s2)n2c-3cc3cc(-c4cnc([C@@H]5CCCN5C(=O)[C@@H](NC(=O)OC)C(C)C)[nH]4)ccc32)[nH]1)C(C)C (single isomer, unassigned) [Compound 77] | 1 | – | 0.053 | 0.005 | 0.0056 | – | – | – | 3.5 | – | – | – | –
